The values below come from US10124019B2, “Compositions and their use for removing cholesterol” (Cornell University, priority 2009, dated 2018).

Read-outs that look alike come from different tables or passages of the source.

The test system of experiment [1] is human NPC1 cells. The experiment is described as follows: Removal of cholesterol from LSOs by filipin staining and digital image analysis.
Procedure: Graph showing the concentration and time dependence of the removal of cholesterol from LSOs of human NPC1 cells incubated with the indicated concentrations of MβCD in complete medium for 1-4 days.
Graph showing concentration of cholesterol from LSOs of NPC1 cells incubated with 0.33 mM MβCD for one hour under various conditions (i.e., no FBS, 10% FBS, and cholesterol-loaded MβCD (i.e., “MbCD/cholest.”), and these with either no chase or a 24 hour chase). At the end of the incubation, cells were rinsed thoroughly, and returned to complete medium for 24 hours.
Graph comparing the cholesterol-lowering ability of MβCD and a MβCD-dextran composition of the instant invention. Human NPC1 cells were incubated with MβCD (●) or Dextran-PEG-MbCD (O) for 39 hours. The polymers had about two MβCDs per polymer, and the concentration is the MβCD concentration.
(A) Cells were treated for 2 days with 50 μM MβCD or 50 μM MβCD conjugated to dextran fixed with paraformaldehyde, stained, and imaged. Cholesterol accumulation in LSOs was measured by quantifying filipin fluorescence. Data represent averages±SEM of one representative experiment (n=8, where n is total number of wells per condition used for quantification).
In this experiment, studies were conducted to determine the effects of MβCD on NPC1 and NPC2 cells. […] The cells were then rinsed and incubated in complete medium for 24 hours. […] To further emphasize this, the one-hour loading pulse was conducted with cholesterol-loaded MβCD, which would actually increase the cellular cholesterol during the loading period.
Experiment [2] relates to GM03123 (NPC1) cells. The experiment is described as follows: LSO filipin assay of cholesterol accumulation, NPC1 mutant fibroblasts. The class given is cell-based, human. The protocol: (§1) FIGS. 5 A-D. Charts showing quantification of CD effects on cholesterol accumulation in NPC1 and NPC2 mutant cells. The filipin fluorescence in LSOs was measured in NPC1 (A and B) and NPC2 (C and D) mutant cells treated with either MβCD (A and C) or HPβCD (B and D) for 1-4 days.
(§2) FIG. 6. Chart comparing cholesterol accumulation as measured by the LSO assay in NPC1-defective, NPC2-defective, and apparently normal human fibroblasts. […] At the end of the experiment, cells were fixed with 1% PFA and stained with 50 μg/mL filipin. Images were acquired using an ImageXpress MICRO imaging system with a 10× objective. Quantification of filipin labeling of the LSOs was performed as described previously (Pipalia N H, Huang A, Ralph H, Rujoi M, Maxfield FR (2006) Automated microscopy screening for compounds that partially revert cholesterol accumulation in Niemann-Pick C cells. J. Lipid Res. 47:284-301).

Experiment [3] concerns GM18455 (NPC2) cells. The experiment is described as follows: LSO filipin assay of cholesterol accumulation, NPC2 mutant fibroblasts. Format: cell-based, human. The protocol:
as §1, §2

Experiment [4] relates to NPC mutant cells. The experiment in a line: BMP accumulation by anti-BMP immunofluorescence. The class given is cell-based, human. The note with it: 0.9 mM CD for ≈1 day (FIG. 15). The protocol: FIGS. 15 A-C. CD effects on BMP accumulation in NPC mutant cells. BMP levels were quantified using fluorescence microscopy from images obtained with a 20× objective of cells stained with anti-BMP antibody and AlexaFluor488-conjugated secondary antibody in NPC1 (A), NPC2 (B) mutant, and 1 μM U18666A-treated normal (C) cells. Cells were incubated with 0.9 mM CD for ≈1 day.

Experiment [5] concerns NPC1 and NPC2 mutant cells. The experiment in a line: LSO filipin staining after cyclodextrin treatment, withdrawal and acute treatment. The class given is cell-based, human. The note with it: for cholesterol accumulation detected by filipin labeling: 300 μM CD for 1 day (FIG. 4); for LSO values one more day after CD removal versus fixed immediately / LSO cholesterol accumulation after three days without extracellular CD: 1 day treatment; for LSO values one more day after CD removal versus fixed immediately: then 1 day in growth medium without CD; for LSO cholesterol accumulation after three days without extracellular CD: then three days in serum containing medium; for level to which LSO cholesterol accumulation is reduced: low micromolar concentrations, 1-4 days (FIG. 5). The protocol:
FIG. 4. Micrographs showing the effect of CDs on cholesterol accumulation in NPC1- and NPC2-deficient cells. (A) Background and shading corrected images of untreated (a and b), MβCD-treated (c and d), or HPβCD-treated (e and f) GM03123 NPC1 cells (a, c, and e) or GM18455 NPC2 (b, d, and f) mutant cells. NPC mutant cells were treated with 300 μMCD for 1 day. (B) Untreated, apparently normal GM05659 cells, shown for comparison. (Scale bars, 100 μm.)
FIGS. 8 A-D. Charts showing persistence of CD effects after treatment. NPC1 (A and B) and NPC2 (C and D) treated with various concentrations of MβCD (A and C) and HPβCD (B and D) for 1 day and then fixed (0 days after 24 h treatment), or rinsed extensively, and allowed to grow in normal growth medium for up to three additional days after CD removal. Quantification of LSO filipin fluorescence power is shown.
FIG. 9 A, B. Filipin micrographs showing acute cyclodextrin effects on cholesterol accumulation in NPC1- and NPC2-deficient cells. Background and shading corrected images of untreated control (panels a-c), 0 h after treatment (panels d-f), or 24 h after treatment (panels g-i) for NPC1 (A) or NPC2 (B) mutant cells were obtained as in FIG. 6. […] (Scale bars, 100 μm.)
FIGS. 10 A-D. Short-term MβCD treatment. […] Cells were either fixed immediately or rinsed extensively and returned to growth medium for 24 hours. Quantification of LSO filipin fluorescence power is shown (A and C). Numeric data represent averages±SEM of three independent experiments normalized to control (untreated) average value for each experiment. *P<0.0001 vs. control (n=12, where n is total number of wells used for quantification). Filipin images of NPC1 (B) or NPC2 (D) mutant cells treated with MβCD/cholesterol are shown. (Scale bars, 100 μm.)
To determine whether the CD-mediated decrease in cholesterol accumulation would be sustained after the compound has been removed from the culture medium, NPC1 and NPC2 mutant cells were treated for 1 day with varying concentrations of MβCD or HPβCD (FIG. 8). The cells were then washed extensively to remove the compounds and returned to growth medium for up to three days.
To determine whether the reduction of free cholesterol in LSOs of NPC-defective cells resulted from extraction of cholesterol by CD from the PM or from inside the LSOs, this experiment acutely treated cells for one hour with MβCD in medium without serum (to extract cholesterol from the PM), MβCD in medium plus 10% FBS (to exchange cholesterol between serum lipoproteins and the PM (V. M. Atger, et al. (1997), J. Clin. Invest., 99:773-780)), or MβCD loaded with cholesterol (≈5:1 (MβCD/cholesterol) ratio) to overload cells with cholesterol.

Experiment [6] concerns U18666A-treated GM05659 cells.
Procedure: (§3) Cells were plated in 384-well assay plates at a density to produce ≈80-90% confluency by experiment completion and treated with U18666A at indicated concentrations for 24 hour before addition of various concentrations of either MβCD or HPβCD for another 24 hours, during which indicated U18666A levels were maintained. At the end of the experiment, cells were fixed with 1% PFA and stained with 50 μg/mL filipin. Images were acquired using an ImageXpressMICRO imaging system with a 10× objective. […] (A) Cholesterol accumulation, as measured by the LSO filipin assay, at different concentrations of U18666A. MβCD (B) and HPβCD (C) LSO filipin dose-response curves at three different U18666A concentrations. […] Data represent averages±SEM of two independent experiments (n=12 for control and n=6 for treated, where n is total number of wells per condition used for quantification).
Experiment [7] concerns NPC1- or NPC2-deficient cell lines. The note with it: literature study, cultured NPC1- and NPC2-deficient cells; cited from earlier work.
The subject of experiment [8] is npc1−/− mice. The note with it: cited from earlier work.
The test system of experiment [9] is U18666A-treated GM05659 cells. The experiment in a line: LSO filipin assay in U18666A-treated apparently normal fibroblasts. The note with it: read-out: EC50 (μM), 50% reduction in LSO filipin, cyclodextrin 1 day.
Procedure: as §3
The subject of experiment [10] is NPC1 human fibroblast GM18453; NPC2 human fibroblast GM18445. The experiment in a line: HDAC inhibitor effect on LSO cholesterol, 48-hour treatment. The class given is cell-based. The note with it: 37 nM. The protocol:
Cells were treated in complete medium for two days (48 hours). The dashed horizontal line is 3SD below the mean for untreated cells. (A) results for NPC1 human fibroblast GM18453, (B) results for NPC2 human fibroblast GM18445.
Each data point in the plot is representative of a total of 32 images from two independent experiments. The standard deviation (SD) for DMSO is 0.07, error bar=SE. The dotted line represents the DMSO control.

In experiment [11] the test system is NPC1- or NPC2-deficient cell lines. The experiment in a line: Cholesterol esterification by ACAT (BODIPY-C12). Format: cell-based, human. The note with it: S58-035 at 10 μg/mL. The protocol: FIG. 12 A, B. Charts showing cholesterol esterification by ACAT. Cyclodextrin effects on cholesterol esterification in NPC1 (A) and NPC2 (B) mutant cells. Cells were treated for 1 hour with 3 mM MβCD or HPβCD and then allowed to recover in growth medium for 16 hours. Cells were then incubated with 3 μM 4,4-difluoro-4-bora-3a,4a-diaza-s-indacene-dodecanoic acid (BODIPY-C12) for 6 hours. The ratio of cholesteryl-BODIPY-C12 ester (CE)/BODIPY-C12 acid (FA) after TLC separation was measured and normalized to the average control value. ACAT inhibitor S58-035 was added, where indicated, at 10 μg/mL. For NPC1-defective cells, the average ratio was 0.110±0.007, which corresponded to 3.73±0.22 fmol CE formed per μg cell protein during 6 hours. Corresponding values for NPC2-defective cells were 0.089±0.003 and 2.50±0.24 fmol/μg.
To measure cholesterol levels within the endoplasmic reticulum in response to brief CD treatments, cholesterol esterification was measured by ACAT (FIG. 12). Increased esterification of cholesterol was observed several hours after a short (1-hour) CD treatment of NPC1- or NPC2-deficient cell lines. […] Corresponding reductions in cholesterol accumulation upon MβCD treatment, as measured by the LSO filipin assay, are shown in FIG. 13.

In experiment [12] the test system is NPC1 fibroblast GM03123. The experiment in a line: HDAC inhibitor dose and time dependence on LSO cholesterol. The class given is cell-based, human. The text has this: FIG. 19. Plots showing the dose and time dependence for each of the studied HDACi compounds as a function of time on NPC1 fibroblast GM03123.
Dose and time dependence for each of the studied HDACi compounds as a function of time on NPC1 fibroblast GM03123 are shown in the plots of FIG. 19. Each data point in the plot is representative of a total of 32 images from two independent experiments. The SD for DMSO is 0.07, error bar=SE. The dotted line represents the DMSO control.

The mark [13] stands for this setting: read-out: EC50 (μM), 50% reduction in LSO filipin, 1 day of treatment.
Where [14] appears, read: read-out: EC50 (μM), 50% reduction in LSO filipin, 2 days of treatment.
The mark [15] stands for this setting: read-out: EC50 (μM), 50% reduction in LSO filipin, 3 days of treatment.
[16] abbreviates: read-out: EC50 (μM), 50% reduction in LSO filipin, 4 days of treatment.

Consider “MβCD-NH-(PEG)3-CONH-aminodextran [MβCD-dextran]”, for which the “reversal of cholesterol accumulation in LSOs (filipin)” value in [1] (50 μM MβCD conjugated to dextran, 2 days (FIG. 11A)) is listed as “can also reverse cholesterol accumulation”. Besides, the “cholesterol-lowering in LSOs” value in [1] (39 hours, about two MβCDs per polymer (FIG. 3)) is on record as “significant effect”.

In the case of hydroxypropyl-βCD [HPβCD], the EC50 was determined as 3.16 µM in experiment [2] (setting [13]); 3.77 µM in experiment [2] (setting [14]); 4.18 µM in [2] (setting [15]); 5.44 µM in experiment [2] (setting [16]); 272 µM in experiment [3] (setting [13]); 20.8 µM in experiment [3] (setting [14]). The EC50 in [3] (setting [15]) amounted to 16.9 µM; in experiment [3] (setting [16]), 11.5 µM; in experiment [6], 17.4 µM; in experiment [9] (U18666A 1,000 nM), 185 µM; in experiment [9] (U18666A […]), 69.9 µM. Also, in experiment [4], the BMP accumulation result is on record as “significantly reduced BMP accumulation”. The “cholesterol accumulation detected by filipin labeling” value in [5] is “reduced cholesterol accumulation”. Moreover, the “LSO values one more day after CD removal versus fixed immediately” value in experiment [5] is reported as “further decrease in LSO values”. In addition, the “LSO cholesterol accumulation after three days without extracellular CD” value in [5] is recorded as “significant reduction”. Also, the “level to which LSO cholesterol accumulation is reduced” value in experiment [5] is given as “near-normal levels”. The “ACAT-mediated esterification of cholesterol” value in experiment [7] is on record as “increased ACAT-mediated esterification of cholesterol”. Moreover, in experiment [8] (repeated injections), the glycosphingolipid storage entry is recorded as “clearance of various glycosphingolipids”. Besides, the lifespan entry in [8] (repeated injections) is on record as “further prolongation of lifespan”; in [8] (single injections) it was “can extend their lifespan”. For the same molecule, in [1] (relative to MβCD), the “times higher concentrations required to achieve the same effect as MβCD” value was 3-5 times.

As to `CC(/C=C/C(=O)NO)=C\[C@@H](C)C(=O)c1ccc(N(C)C)cc1` [trichostatin A], the “reduction of cholesterol in the LSOs” value in experiment [10] was “significantly effective”.

With methyl β-cyclodextrin [MβCD], the EC50 stood at 2.22 µM in experiment [2] (setting [13]); 1.1 µM in [2] (setting [14]); 0.98 µM in [2] (setting [15]); 1.08 µM in experiment [2] (setting [16]); 40.4 µM in experiment [3] (setting [13]); 3.19 µM in [3] (setting [14]). Besides, the EC50 in experiment [3] (setting [15]) is 2.8 µM; in experiment [3] (setting [16]), 1.69 µM; in experiment [6] it was 6.2 µM; in experiment [9] (U18666A 1,000 nM), 48.1 µM; in experiment [9] (U18666A […]), 18.9 µM; in experiment [1] (read-out: concentration giving half-maximal effect on removal of cholesterol from LSOs, complete medium, 1-4 days (FIG. 1)), 2 to 3 µM. Also, the BMP accumulation entry in experiment [4] is given as “significantly reduced BMP accumulation”. Besides, in [5], the “cholesterol accumulation detected by filipin labeling” value is recorded as “reduced cholesterol accumulation”. The “LSO values one more day after CD removal versus fixed immediately” value in experiment [5] is on record as “further decrease in LSO values”. Moreover, the “LSO cholesterol accumulation after three days without extracellular CD” value in experiment [5] is given as “significant reduction”. The “level to which LSO cholesterol accumulation is reduced” value in experiment [5] is on record as “near-normal levels”. In addition, the “concentration giving effects equivalent to those of HPβCD” value in experiment [5] (relative to HPβCD) is “approximately three-fold lower concentrations”. In experiment [1] (1 hour pulse, 0.33 mM, then 24 hours in complete medium), the “cholesterol in LSOs after 24 hr chase” value is given as “significant reduction”. Besides, the “time for the effect to reach steady state” value in experiment [1] (FIG. 1) is “about 2 days”.

For the molecule `CCCCCCCCCC[Si](C)(C)CCC(=O)NC(Cc1ccc(C)cc1)c1ccccc1` (centres unmarked) [S58-035], the “effect on CD-induced increase in cholesterol esterification” value in experiment [11] is reported as “inhibited”.

In the case of `O=C(CCCCCCC(=O)Nc1ccccc1)NO` [SAHA, suberoylanilide hydroxamic acid], the “reduction of cholesterol in the LSOs” value in [12] is given as “somewhat effective”; in experiment [12] (10 μM, other experiments (not shown)), “much more effective”.
